Assay results: patent publication US20240124469A1, “PIM KINASE INHIBITOR” (Hangzhou Biosun Pharmaceutical Co., Ltd., priority 2021, published 2024)

Key:
PIM1 = PIM1 (Homo sapiens (Human), UniProt P11309); assay: PIM1 kinase activity test (Mobility shift assay); type: biochemical
Description: (§1) The efficacy of the compounds on the activity of PIM1/2/3 was tested by utilizing the Mobility shift assay method, with the specific procedures shown as follows: the test compounds were each dissolved in DMSO to be prepared into a 10 mM stock solution; for each of the test compounds, the stock solution was subjected to a 3-fold dilution from an initial concentration of 10 μM to obtain 10 concentrations.
(§2) PIM1, PIM2, and PIM3 (all three kinases are from Carna) were each prepared with 1× Kinase buffer into a kinase solution at a concentration that was 2.5 times the final concentration. 10 μL of kinase solution at a concentration that was 2.5 times the final concentration was added to each of the compound wells and the positive control well, and 10 μL of 1× Kinase buffer was added to the negative control well. The plate was centrifuged at 1000 rpm for 30 s, mixed well by shaking, and then incubated at room temperature for 10 min. A mixed solution of ATP and Kinase substrate 20 (from GL) at a concentration that was 25/15 times the final concentration was prepared with 1× Kinase buffer. The reaction was started by adding 15 μL of the mixed solution of ATP and Kinase substrate 20 at a concentration that was 25/15 times the final concentration. The 384-well plate was centrifuged at 1000 rpm for 30 s, mixed well by shaking, and then incubated at room temperature for 60 min. 30 μL of stop assay buffer was added to stop the kinase reaction. The plate was centrifuged at 1000 rpm for 30 s and mixed well by shaking. The conversion rates were read using Caliper EZ Reader.
(§3) The IC50 values of the test compounds for kinase activity were obtained by adopting a fitted dose-response curve of analytic software GraphPad Prism 5.

PIM3 = PIM3 (Homo sapiens (Human), UniProt Q86V86); assay: PIM3 kinase activity test (Mobility shift assay); type: biochemical
Description: as §1, §2, §3

PIM2 = PIM2 (Homo sapiens (Human), UniProt Q9P1W9); assay: PIM2 kinase activity test (Mobility shift assay); type: biochemical
PIM2, sequence (Q9P1W9 whole entry): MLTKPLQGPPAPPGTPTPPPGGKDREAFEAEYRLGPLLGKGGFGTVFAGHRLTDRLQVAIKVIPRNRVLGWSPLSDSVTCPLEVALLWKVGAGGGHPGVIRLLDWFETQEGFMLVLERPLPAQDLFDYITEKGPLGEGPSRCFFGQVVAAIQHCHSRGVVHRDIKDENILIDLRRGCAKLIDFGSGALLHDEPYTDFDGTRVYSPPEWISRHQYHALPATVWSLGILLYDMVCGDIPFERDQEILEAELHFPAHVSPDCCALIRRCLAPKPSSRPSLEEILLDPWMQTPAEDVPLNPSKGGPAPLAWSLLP
Description: as §1, §2, §3

Ba/F3-EPOR-JAK2-V617F = assay: Cell inhibitory activity test (72 h CTG); type: cell-based
Description: The EPOR-JAK2-V617F gene was transferred into Ba/F3 wild-type cells by a retrovirus packaging system to obtain a stably transfected cell line Ba/F3-EPOR-JAK2-V617F, which was used for the cell inhibitory activity ICso test of the compounds (reference: Blood. 2010; 115(15): 3109-3117). The specific procedures were as follows: • Cells were seeded in a 96-well plate, treated with the test compounds from DMSO stock solutions (final concentration of DMSO is 0.2%), and cultured at 37° C. with 5% CO2 for 72 h. Then, the cell proliferation inhibitory activity was assayed by the CTG (Cell-Titer Glo) method. For each of the test compounds, the stock solution was subjected to a 3-fold dilution from an initial concentration of 10 μM to obtain 9 concentrations. The dose-response relationship curve was fitted by using Graphpad 7.0 analysis software, and IC50 values were obtained.

PIM1, sequence (P11309 whole entry): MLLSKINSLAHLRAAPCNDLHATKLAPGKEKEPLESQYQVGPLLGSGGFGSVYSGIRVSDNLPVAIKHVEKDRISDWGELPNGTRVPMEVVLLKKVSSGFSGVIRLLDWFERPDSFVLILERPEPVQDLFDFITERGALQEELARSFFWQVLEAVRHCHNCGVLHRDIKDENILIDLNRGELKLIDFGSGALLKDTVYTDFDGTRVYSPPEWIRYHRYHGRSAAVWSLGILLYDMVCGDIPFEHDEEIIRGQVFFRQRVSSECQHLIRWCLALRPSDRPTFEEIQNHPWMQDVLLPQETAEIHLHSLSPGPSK

| SMILES | IC50 (PIM1) [nM] | IC50 (PIM3) [nM] | IC50 (PIM2) [nM] | IC50 (Ba/F3-EPOR-JAK2-V617F) [nM] |
| --- | --- | --- | --- | --- |
| FC(F)(F)c1cccc(-c2cnc3ccc(NC4CCCNCC4)nn23)c1 (stereo not drawn) [Compound 19, N-(azepan-4-yl)-3-[3-(trifluoromethyl)phenyl]imidazo[1,2-b]pyridazin-6-amine] | 2 to 10 | 10 to 100 | 100 to 1000 |  |
| CC(C)(O)[C@H]1CC[C@H](Nc2ccc3nc(C(=O)O)c(-c4cccc(C(F)(F)F)c4)n3n2)CC1 [Compound 42, 6-(((1r,4r)-4-(2-hydroxypropan-2-yl)cyclohexyl)amino)-3-(3-(trifluoromethyl)phenyl)imidazo[1,2-b]pyridazine-2-carboxylic acid] | 100 to 1000 | 1000 to 10000 | > 10000 |  |
| CC(C)(O)[C@H]1CC[C@H](Nc2ccc3ncc(-c4cccc(-c5ccco5)c4)n3n2)CC1 [Compound 48, 2-((1r,4r)-4-((3-(3-(furan-2-yl)phenyl)imidazo[1,2-b]pyridazin-6-yl)amino)cyclohexyl)propan-2-ol] | 10 to 100 | 100 to 1000 | > 10000 |  |
| CN1CCC(CNc2ccc3ncc(-c4cccc(N(C)C)c4)n3n2)CC1 [Compound 50, 3-(3-(dimethylamino)phenyl)-N-((1-methylpiperidin-4-yl)methyl)imidazo[1,2-b]pyridazin-6-amine] | 100 to 1000 | 1000 to 10000 | > 10000 |  |
| FC(F)(F)c1cccc(-c2cnc3ccc(NC4CC5(CCNC5)C4)nn23)c1 (stereo not drawn) [Compound 24, N-(6-azaspiro [3.4]octan-2-yl)-3-(3-(trifluoromethyl)phenyl)imidazo[1,2-b]pyridazin-6-amine] | 100 to 1000 | 100 to 1000 | 1000 to 10000 |  |
| FC(F)(F)c1cccc(-c2cnc3ccc(NC4CC5(CCN(C6CC6)CC5)C4)nn23)c1 [Compound 30, N-(7-cyclopropyl-7-azaspiro [3.5]nonan-2-yl)-3-(3-(trifluoromethyl)phenyl)imidazo[1,2-b]pyridazin-6-amine] | 10 to 100 | 1000 to 10000 | > 10000 |  |
| O[C@H]1CCC[C@@H](Nc2ccc3ncc(-c4cccc(C(F)(F)F)c4)n3n2)CC1 (relative stereo) [Compound 23, cis-4-[[3-[3-(trifluoromethyl)phenyl]imidazo[1,2-b]pyridazin-6-yl]amino]cycloheptanol] | 100 to 1000 | 1000 to 10000 | > 10000 |  |
| FC(F)(F)c1ccc(-c2cnc3ccc(NC4CCCNCC4)nn23)s1 (stereo not drawn) [Compound 28, N-(azepan-4-yl)-3-[5-(trifluoromethyl)-2-thienyl] imidazo[1,2-b] pyrid azin-6-amine] | < 2 | 10 to 100 | 100 to 1000 | 50 to 100 |
| OC[C@H]1CC[C@H](Nc2ccc3ncc(-c4ccc(C(F)(F)F)s4)n3n2)CO1 [Compound 47, [(2R,5S)-5-[[3-[5-(trifluoromethyl)-2-thienyl]imidazo[1,2-b]pyridazin-6-yl]amino]tetrahydropyran-2-yl]methanol] | 10 to 100 | 1000 to 10000 | > 10000 |  |
| O[C@H]1CCCC[C@@H](Nc2ccc3ncc(-c4cccc(C(F)(F)F)c4)n3n2)C1 [Compound 21, (1S,3R)-3-[[3-[3-(trifluoromethyl)phenyl]imidazo[1,2-b]pyridazin-6-yl]amino]cycloheptanol] | 100 to 1000 | 1000 to 10000 | 1000 to 10000 |  |
| O[C@@H]1CCCC[C@@H](Nc2ccc3ncc(-c4cccc(C(F)(F)F)c4)n3n2)C1 [Compound 44, (1R,3R)-3-((3-(3-(trifluoromethyl)phenyl)imidazo[1,2-b]pyridazin-6-yl)amino)cycloheptanol] | 100 to 1000 | > 10000 | > 10000 |  |
| FC(F)(F)c1cccc(-c2cnc3ccc(NCC4CC5(CCNCC5)C4)nn23)c1 [Compound 15, N-(7-azaspiro [3.5]nonan-2-ylmethyl)-3-[3-(trifluoromethyl)phenyl]imidazo[1,2-b]pyridazin-6-amine] | 10 to 100 | 100 to 1000 | 1000 to 10000 |  |
| CN1CCC2(CC1)CC(Nc1ccc3ncc(-c4cccc(C(F)(F)F)c4)n3n1)C2 [Compound 26, N-(7-methyl-7-azaspiro[3.5]nonan-2-yl)-3-(3-(trifluoromethyl)phenyl)imidazo[1,2-b]pyridazin-6-amine] | 10 to 100 | 100 to 1000 | 1000 to 10000 |  |
| FC(F)(F)c1cccc(-c2cnc3ccc(NCC4CC5(CCNC5)C4)nn23)c1 (stereo not drawn) [Compound 18, N-(6-azaspiro[3.4]octan-2-ylmethyl)-3-(3-(trifluoromethyl)phenyl)imidazo[1,2-b]pyridazin-6-amine] | 10 to 100 | 100 to 1000 | 100 to 1000 |  |
| O[C@@H]1CCC[C@@H](Nc2ccc3ncc(-c4cccc(C(F)(F)F)c4)n3n2)CC1 [Compound 45, (1R,4R)-4-((3-(3-(trifluoromethyl)phenyl)imidazo[1,2-b]pyridazin-6-yl)amino)cycloheptanol] | 10 to 100 | 1000 to 10000 | 1000 to 10000 |  |
| CC(C)(O)[C@H]1CC[C@H](Nc2ccc3ncc(-c4cccc(S(C)(=O)=O)c4)n3n2)CC1 [Compound 51, 2-[(1r,4r)-4-[[3-(3-methylsulfonylphenyl)imidazo[1,2-b]pyridazin-6-yl]amino]cyclohexyl]propan-2-ol] | 100 to 1000 | > 10000 | 1000 to 10000 |  |
| OC[C@@H]1CC[C@@H](Nc2ccc3ncc(-c4cccc(C(F)(F)F)c4)n3n2)CO1 [Compound 22, [(2S,5R)-5-[[3-[3-(trifluoromethyl)phenyl]imidazo[1,2-b]pyridazin-6-yl]amino]tetrahydropyran-2-yl]methanol] | 10 to 100 | 1000 to 10000 | 1000 to 10000 |  |
| FC(F)(F)c1cccc(-c2cnc3ccc(NC4CC5(CCNCC5)C4)nn23)c1 [Compound 16, N-(7-azaspiro[3.5]nonan-2-yl)-3-[3-(trifluoromethyl)phenyl]imidazo[1,2-b]pyridazin-6-amine] | 2 to 10 | 10 to 100 | 100 to 1000 | > 150 |
| CC(C)(O)[C@H]1CC[C@H](Nc2ccc3ncc(-c4nccs4)n3n2)CC1 [Compound 17, 2-[(1r,4r)-4-[(3-thiazol-2-ylimidazo[1,2-b]pyridazin-6-yl)amino]cyclohexyl]propan-2-ol] | 100 to 1000 | 100 to 1000 | 100 to 1000 |  |
| FC(F)(F)c1ccc(-c2cnc3ccc(NC4CC5(CCNCC5)C4)nn23)s1 [Compound 31, N-(7-azaspiro[3.5]nonan-2-yl)-3-[5-(trifluoromethyl)-2-thienyl]imidazo[1,2-b]pyridazin-6-amine] | < 2 | 10 to 100 | 100 to 1000 | 50 to 100 |
| OC[C@H]1CC[C@H](Nc2ccc3ncc(-c4cccc(C(F)(F)F)c4)n3n2)CO1 [Compound 25, [(2R,5S)-5-[[3-[3-(trifluoromethyl)phenyl]imidazo[1,2-b]pyridazin-6-yl]amino]tetrahydropyran-2-yl]methanol] | 100 to 1000 | 1000 to 10000 | > 10000 |  |
| CN1CCCC(Nc2ccc3ncc(-c4cccc(C(F)(F)F)c4)n3n2)CC1 (stereo not drawn) [Compound 27, N-(1-methylazacycloheptan-4-yl)-3-[3-(trifluoromethyl)phenyl]imidazo[1,2-b]pyridazin-6-amine] | 10 to 100 | 100 to 1000 | 100 to 1000 |  |
| CC(C)(O)[C@H]1CC[C@H](Nc2ccc3ncc(-c4cccs4)n3n2)CC1 [Compound 14, 2-[(1r,4r)-4-[[3-(2-thienyl)imidazo[1,2-b]pyridazin-6-yl]amino]cyclohexyl]propan-2-ol] | 10 to 100 | 100 to 1000 | 100 to 1000 |  |
| CC(C)(O)[C@H]1CC[C@H](Nc2ccc3nc(C#N)c(-c4cccc(C(F)(F)F)c4)n3n2)CC1 [Compound 43, 6-(((1r,4r)-4-(2-hydroxypropan-2-yl)cyclohexyl)amino)-3-(3-(trifluoromethyl)phenyl)imidazo[1,2-b] pyridazine-2-carbonitrile] | 100 to 1000 | > 10000 | > 10000 |  |
